Assay results from PMC12056667 (Chemical Science, 2025).
Where two headings read alike, the source gives them in different places.

Tests used:
Tet(X4) [1] = molecular target: T1, Tet(X4) (Escherichia coli, UniProt A0A3T0V9Y5); test: FP competitive displacement of probe 6; format: binding; details: for IC50: IC50app, FP assay, 25 nM 6, 40 nM Tet(X4), 5 mM MgCl2, 1 μM FAD, 100 mM Tris pH 7.0, 0.01% Triton X-100; for displacement of probe 6 / competitive binding (in words): up to a maximum concentration of 100 μM
Outline: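 FP displacement of probe 6 (added as 50 nM solution) from Tet(X4) (2× mix: 80 nM enzyme, 2 μM FAD, 10 mM MgCl2), 30 min at ambient temperature. Dose-response used 3-fold, 10-point DMSO series (top 5 or 0.5 mM stock). IC50^app came from a Hill fit of control-normalised response. Library screening used 10 μM compound, 0.1% DMSO, […].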

Tet(X4) [2] = molecular target: T1, Tet(X4); test: Absorbance activity assay (tigecycline turnover, A400); format: biochemical; details: for inhibition in the absorbance assay (in words): AZT up to 1 mM
Text: We then tested the binding of reported type 1 TDase inhibitors to Tet(X4) (Fig. 3f, ESI Fig. S17 ^†).[33,38,39] […] These compounds gave similar apparent IC50^app values, in accord with trends in IC50 measurements performed by Markley et al.[33] […] We also developed a complementary endpoint activity assay where the turnover of tigecycline by Tet(X4) in a 96-well plate was quenched by addition of 1%v/v formic acid and analysed chromatographically. The peak integrals of tigecycline and its hydroxylated degradation product at 254 nm following UPLC analysis were measured to determine turnover (Fig. 5a). As this method separates components by chromatography, it enables IC50 measurements independent of potential interference from UV-active inhibitors (Fig. 5b). […] The apparent synergy of AZT with tetracyclines against whole cells expressing Tet(X4)[40] is therefore interesting and may derive from the proposed ability of AZT to interfere with DNA synthesis in bacteria,[40,53] or other unidentified mechanisms. […] Note, however, that plumbagin and 2-MNQ are naphthoquinones, which are well-characterised redox-active pan-assay interference (PAINS) moieties.[54]
233 Absorbance Activity Assays
234 A solution containing 100 mM TAPS (pH 8.5), 2 µM FAD, 10 mM MgCl2 and 100 nM Tet(X4) was
235 dispensed into a 384 well µClear plate (Greiner Bio-One), 25 µL per well, using a microplate reagent
236 dispenser. A 3-fold, 10-point dilution series of the substrates and inhibitors was made in DMSO with
237 the highest concentration of 50 mM, unless otherwise stated, and transferred to the enzyme solution in
238 technical quadruplicate using a CyBi-Well (CyBio) liquid-handling robot (1 µL per well). On each plate,
239 a column of no enzyme negative controls and no inhibitor (DMSO only) positive controls were
240 included. The plate was briefly centrifuged (1000 rpm), then incubated (ambient temperature,15 min).
241 A solution containing 100 mM TAPS (pH 8.5), 50 µM tigecycline and 500 µM NADPH was then
242 dispensed, with 25 µL per well. The plate was briefly centrifuged (1000 rpm), then transferred to a
243 CLARIOstar Plus Microplate reader. The absorbance was monitored at wavelength […] over the
244 course of 2 hours (23 flashes / cycle, 180 s cycle time, 41 data points, 25 ° C). The initial rate was
245 calculated by measuring the rate of change of A400 during the initial linear regime. Initial rates were
246 normalised between positive and negative controls. The normalised % response was plotted as a
247 function of log10([Inhibitor]) in molar units, and the IC50 was determined as above. […]

Tet(X4) [3] = molecular target: T1, Tet(X4); test: biochemical
Protocol: We then tested the binding of reported type 1 TDase inhibitors to Tet(X4) (Fig. 3f, ESI Fig. S17 ^†).[33,38,39] […] We also developed a complementary endpoint activity assay where the turnover of tigecycline by Tet(X4) in a 96-well plate was quenched by addition of 1%v/v formic acid and analysed chromatographically. The peak integrals of tigecycline and its hydroxylated degradation product at 254 nm following UPLC analysis were measured to determine turnover (Fig. 5a).
[…] A 3-fold, 10-point dilution series of the substrates and inhibitors was made in DMSO with a top concentration of 10 mM, unless otherwise stated, and transferred to the enzyme solution using a CyBi-Well liquid-handling robot (CyBio), 1 μL per well. On each plate, a column of no enzyme negative controls and no inhibitor (DMSO only) positive controls were included. The plate was incubated at 30 °C for 15 min. A solution containing 100 mM TAPS (pH 8.5), 40 μM tigecycline and 200 μM NADPH was then dispensed, with 49 μL per well. The plate was incubated at 30 °C for 20 min at 600 rpm. 10 μL of 10%v/v formic acid solution was then dispensed into all wells. Samples were analysed using an ACQUITY H-Class PLUS UPLC instrument (Waters) equipped with a pre-equilibrated ACQUITY BEH C18 column ([…], […], Waters) using a gradient of 1–50%v/v acetonitrile with 0.1%v/v formic acid in water with 0.1%v/v formic acid over 1.83 minutes at a flow rate of 0.5 mL min^−1. Instrument control and data processing were performed using MassLynx V4.1 software. The peaks representing tigecycline and 11a-hydroxy-tigecycline were integrated, used to calculate % conversion and then normalised between positive and negative controls. The normalised % response was plotted as a function of log10[Inhibitor], and the IC50 determined as described above.

Tet(X4) [4] = molecular target: T1, Tet(X4); test: Fluorescence polarisation binding assay of probes with purified TDase; details: 25 nM probe, 5 mM MgCl2, 1 μM FAD, 100 mM Tris pH 7.0, 0.01% Triton X-100; read-out: Kd
Protocol: (§1) NADPH was not included to prevent turnover of the probe to the hydroxylated product, which would likely have a lower binding affinity than the initial probes. Screens were conducted in pH 7.0 buffer with addition of 0.01% Triton-X100 detergent in non-binding plates to minimise adsorption to the plate wells.[45]
Aliquots of TDases were thawed and serially diluted with the assay buffer (100 mM Tris, pH 7.0 with 0.01% Triton X-100) in a V-bottom 96-well plate (Greiner Bio-One). 12.5 μL of each concentration of enzyme was transferred in quadruplicate to a 384-well black, non-binding microtiter plate (Greiner Bio-One). […] 12.5 μL of this solution was added to wells containing enzyme. A negative control of 12.5 μL of the probe solution with 12.5 μL of the assay buffer was included on each plate. The plate was briefly centrifuged (1000 rpm), then incubated at ambient temperature for 30 min before measuring the FP response using a PHERAstar FS microplate reader (BMG Labtech) equipped with an FP optic module (excitation = 540 ± 20 nm, Emission = 590 ± 20 nm, 200 flashes per well). ΔmP values were calculated by subtracting the average mP of the negative controls from the mP measured for each well. To calculate Kd values, the derived ΔmP values were plotted as a function of enzyme concentration and a one-site specific binding model was applied (GraphPad Prism 9.4.1).

Tet(50) = molecular target: T2, Tet(50) (Unknown prokaryotic organism, UniProt A0A059WYP6); test: as above
T2 construct: made in house; host or cells: E. coli BL21(DE3)
Protocol: as §1
(§2) Aliquots of TDases were thawed and serially diluted with the assay buffer (100 mM Tris, pH 7.0 with 0.01% Triton X-100) in a V-bottom 96-well plate (Greiner Bio-One). 12.5 μL of each concentration of enzyme was transferred in quadruplicate to a 384-well black, non-binding microtiter plate (Greiner Bio-One). Aliquots of 2 mM stock of fluorescent probes 5 and 6 in DMSO were thawed and diluted to 50 nM in the assay buffer with 2 μM FAD and 10 mM MgCl2. 12.5 μL of this solution was added to wells containing enzyme. A negative control of 12.5 μL of the probe solution with 12.5 μL of the assay buffer was included on each plate. The plate was briefly centrifuged (1000 rpm), then incubated at ambient temperature for 30 min before measuring the FP response using a PHERAstar FS microplate reader (BMG Labtech) equipped with an FP optic module (excitation = 540 ± 20 nm, Emission = 590 ± 20 nm, 200 flashes per well). ΔmP values were calculated by subtracting the average mP of the negative controls from the mP measured for each well. To calculate Kd values, the derived ΔmP values were plotted as a function of enzyme concentration and a one-site specific binding model was applied (GraphPad Prism 9.4.1).

Tet(X2) = molecular target: T3, Tet(X2) (Bacteroides thetaiotaomicron, UniProt Q93L51); test: as above
T3 construct: For Tet(X2), the full-length protein was prepared rather that the Δ1–10 mutant used previously for crystallographic studies; made in house; host or cells: E. coli BL21(DE3)
Protocol: as §1, §2

Tet(X5) = test: as above; details: 25 nM probe, 5 mM MgCl2, 1 μM FAD, 100 mM Tris pH 7.0, 0.01% Triton X-100
Protocol: as §1, §2

Tet(X7) = test: as above; details: 25 nM probe, 5 mM MgCl2, 1 μM FAD, 100 mM Tris pH 7.0, 0.01% Triton X-100
Protocol: as §1, §2

Structure (SMILES)	IC50 (Tet(X4) [1]) [µM]	displacement of probe 6 / competitive binding (in words) (Tet(X4) [1])	IC50 (Tet(X4) [2]; 25 μM tigecycline, 50 nM Tet(X4), 250 μM NADPH, 5 mM MgCl2, 1 μM FAD, 100 mM TAPS pH 8.5, read-out: IC50, Absorbance assay) [µM]	inhibition in the absorbance assay (in words) (Tet(X4) [2])	IC50 (Tet(X4) [3]; 20 μM tigecycline, 50 nM Tet(X4), 100 μM NADPH, 5 mM MgCl2, 1 μM FAD, 100 mM TAPS pH 8.5, read-out: IC50, UPLC assay) [µM]	inhibition in the UPLC assay (in words) (Tet(X4) [3]; AZT up to 100 μM)	Kd (Tet(X4) [4]) [µM]	Kd (Tet(50); 25 nM probe, 5 mM MgCl2, 1 μM FAD, 100 mM Tris pH 7.0, 0.01% Triton X-100) [µM]	binding to Tet(50) (in words) (Tet(50); up to a concentration of 5 μM of enzyme)	Kd (Tet(X2)) [µM]	Kd (Tet(X5)) [µM]	Kd (Tet(X7)) [µM]	IC50 (Tet(X4) [2]) [µM]	inhibition in the UPLC assay (in words) (Tet(X4) [3])	IC50 (Tet(X4) [3]; IC50, UPLC assay) [µM]
COC1=CC(=O)c2ccccc2C1=O [2-Methoxy-1,4-naphthoquinone]	> 100	minimal competitive binding	421 ± 50	weak	> 100	weak									
CN(C)c1ccc2c(-c3ccc(C(=O)NCC(=O)Nc4cc(N(C)C)c5c(c4O)C(=O)C4=C(O)[C@]6(O)C(=O)C(C(N)=O)=C(O)[C@H](N(C)C)[C@@H]6C[C@@H]4C5)cc3C(=O)[O-])c3ccc(=[N+](C)C)cc-3oc2c1 [Probe 5]							0.0465 ± 0.0041	> 5	no detectable binding	0.0669 ± 0.0103	0.0299 ± 0.0027	0.126 ± 0.015			
Cc1cn([C@H]2C[C@H](N=[N+]=[N-])[C@@H](CO)O2)c(=O)[nH]c1=O [Azidothymidine]	> 100	minimal competitive binding		No inhibition									> 1000	No inhibition	> 100
